Molecular target: IvoA (Aspergillus nidulans, UniProt C8V7P4)
Assay: chiral HPLC of D-tryptophan formation, steady-state kinetics
Format: biochemical
Settings: substrate inhibition; ATP-dependent stereoinversion, apparent constant

IvoA, sequence (C8V7P4 whole entry): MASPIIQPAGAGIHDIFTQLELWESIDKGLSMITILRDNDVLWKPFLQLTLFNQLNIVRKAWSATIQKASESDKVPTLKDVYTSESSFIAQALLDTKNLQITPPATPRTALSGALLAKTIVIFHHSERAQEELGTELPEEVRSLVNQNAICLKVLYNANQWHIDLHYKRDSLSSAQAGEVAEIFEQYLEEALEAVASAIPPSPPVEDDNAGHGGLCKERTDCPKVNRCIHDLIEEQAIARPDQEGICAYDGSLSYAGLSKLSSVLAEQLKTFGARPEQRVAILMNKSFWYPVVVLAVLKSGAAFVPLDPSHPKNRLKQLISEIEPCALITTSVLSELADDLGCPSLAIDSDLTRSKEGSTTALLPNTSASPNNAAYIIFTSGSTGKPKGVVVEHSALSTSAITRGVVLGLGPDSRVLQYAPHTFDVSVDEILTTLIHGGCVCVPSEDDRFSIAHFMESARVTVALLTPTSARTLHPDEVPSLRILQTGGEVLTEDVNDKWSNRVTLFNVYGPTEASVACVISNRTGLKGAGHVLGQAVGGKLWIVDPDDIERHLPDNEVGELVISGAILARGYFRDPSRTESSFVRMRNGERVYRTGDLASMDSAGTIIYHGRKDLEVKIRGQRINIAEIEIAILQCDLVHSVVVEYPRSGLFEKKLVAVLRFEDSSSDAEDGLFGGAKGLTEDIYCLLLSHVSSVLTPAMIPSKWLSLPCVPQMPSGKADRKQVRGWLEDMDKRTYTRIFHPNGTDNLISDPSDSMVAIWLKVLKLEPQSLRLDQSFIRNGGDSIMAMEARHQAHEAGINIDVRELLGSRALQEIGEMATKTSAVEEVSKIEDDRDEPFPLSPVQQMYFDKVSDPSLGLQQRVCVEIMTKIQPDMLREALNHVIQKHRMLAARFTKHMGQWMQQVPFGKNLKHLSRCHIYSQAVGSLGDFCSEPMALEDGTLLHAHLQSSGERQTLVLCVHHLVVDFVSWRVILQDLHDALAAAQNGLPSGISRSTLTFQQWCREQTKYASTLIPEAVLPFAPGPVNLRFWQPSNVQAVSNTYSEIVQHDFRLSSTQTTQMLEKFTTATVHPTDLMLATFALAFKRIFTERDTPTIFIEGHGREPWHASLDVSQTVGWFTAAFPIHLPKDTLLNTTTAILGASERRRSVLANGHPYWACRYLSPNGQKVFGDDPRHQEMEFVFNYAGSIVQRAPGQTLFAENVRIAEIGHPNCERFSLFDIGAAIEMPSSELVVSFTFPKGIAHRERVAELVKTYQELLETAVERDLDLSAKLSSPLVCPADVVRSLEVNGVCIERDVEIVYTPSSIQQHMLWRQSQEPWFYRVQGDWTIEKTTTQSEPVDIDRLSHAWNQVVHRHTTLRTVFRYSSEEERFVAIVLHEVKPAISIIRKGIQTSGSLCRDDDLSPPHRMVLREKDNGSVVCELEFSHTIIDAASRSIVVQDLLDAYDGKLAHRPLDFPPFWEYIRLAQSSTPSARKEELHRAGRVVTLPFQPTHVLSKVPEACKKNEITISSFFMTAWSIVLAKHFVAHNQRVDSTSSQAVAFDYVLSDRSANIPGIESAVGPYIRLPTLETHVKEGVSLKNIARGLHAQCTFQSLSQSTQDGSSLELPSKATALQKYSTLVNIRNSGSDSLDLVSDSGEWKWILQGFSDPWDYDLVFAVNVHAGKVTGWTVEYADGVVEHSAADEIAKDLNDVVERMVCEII

N[C@@H](Cc1c[nH]c2ccccc12)C(=O)O [L-tryptophan]
Ki app: 4 ± 1 mM

Reference: publication PMC6927398 (Journal of the American Chemical Society, 2019)
